Assay results: US8278072B1, “Method for synthesis of sialylated products using reversible sialylation” (Health Research, Inc., priority 2007, dated 2012)
Each block holds one compound with its values, some of them ahead of it.

Experiments:
Assay type in all cases: biochemical
ST3Gal-II [1] = biological target: T1, ST3Gal-II (Rattus norvegicus, UniProt Q11205); assay: Effect of O-glycans with sialyl or sulfo substituents on reverse sialylation from [9-3H] sialyl fetuin; details: 6.0 mM compound, [9-3H] sialyl fetuin donor, 20 mM 5′-CMP, 20 h
T1 construct: purchased Calbiochem
T1 sequence (Q11205 1-350): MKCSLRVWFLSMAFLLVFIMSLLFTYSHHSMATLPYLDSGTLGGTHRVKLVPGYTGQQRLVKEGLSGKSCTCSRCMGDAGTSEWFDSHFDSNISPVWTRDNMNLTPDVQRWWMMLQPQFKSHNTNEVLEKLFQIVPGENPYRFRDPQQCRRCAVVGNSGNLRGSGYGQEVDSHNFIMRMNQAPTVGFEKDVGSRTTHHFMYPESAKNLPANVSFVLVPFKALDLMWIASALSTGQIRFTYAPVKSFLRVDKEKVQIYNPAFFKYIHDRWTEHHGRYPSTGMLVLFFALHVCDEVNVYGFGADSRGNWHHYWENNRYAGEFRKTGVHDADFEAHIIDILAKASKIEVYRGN
Description: FIG. 6. Effect of sialyl or sulfo substituents in O-glycan chain on the reverse sialylation by ST3Gal-II. Incubation mixtures (600 μl) contained [9-^3H] sialyl fetuin (5 mg), 200 mM NaCa Codylate pH 6.0, 20 mM 5′-CMP, […] ST3Gal-II and the following: a. 6.0 mM NeuAcα2,3Galβ1,4GlcNAcβ1,6 (Galβ1,3)GalNAcα-O-Bn, b. 6.0 mM 3-O-SulfoGalβ1,4GlcNAcβ1,6(Galβ1,3)GalNAcα-O-Bn or c. 6.0 mM Galβ1,6GlcNAcβ1,6(3-O-Sulphoβ1,3Gal)GalNAcα-O-Bn along with 50 mU ST3Gal-III. Products were fractionated using Biogel P2 column after 20 h at 37° C. Unused [9-^3H] sialyl fetuin (peak 1) appears prior to [9-^3H]Sialyl product from acceptor (peak 2) and CMP-[9-^3H]NeuAc (peak 3). Product identities were verified using LC-MS as indicated by molecular weights noted in the panels.
For these studies, [9-^3H] sialyl fetuin was prepared by the action of ST3Gal-II on fetuin in the presence of CMP-[9-^3H]NeuAc. Radioactivity incorporation into the O-glycan chain of the glycoprotein was confirmed by treating the labeled molecule with alkaline borohyrdride (1MNaBH4 in 0.1MNaOH at 45° C. for 24 hours) and detecting the released radioactivity. During these studies, sialyl fetuin was incubated with 5′-CMP, one of the above mentioned compounds, and sialyltransferase for 20 hours, and the product formed was eluted using a Biogel P2 column. […] Consequently no radioactivity was associated with the acceptor. […] The use of distinct compounds to differentially alter reverse and forward sialylation function further supports the concept that ST3Gal-II may have more than one catalytic function.

ST3Gal-II [2] = biological target: T1, ST3Gal-II; assay: Reverse sialylation equilibrium constant (Keq) and 5′-CMP dose dependence; details: for Keq (dimensionless units), reverse sialylation equilibrium constant: acceptor 5′-CMP
Description: FIG. 2. Equilibrium constant. a. Reversible sialyltransferase activity at increasing concentration of 5′-CMP. 0.15 mM of donor [9-^3H]NeuAcα2,3Galβ1,3(4-FGlcNAcβ1,6)GalNAcα-O-Bn [9-^3H[2]] was incubated with varying concentrations of 5′-CMP and 0.15 mU ST3Gal-II under conditions described in FIG. 1 for 2 hours. The consumption of the [9-^3H]NeuAc benzyl glycoside donor was measured by subjecting the incubation mixture to Sep-Pak C18 fractionation, which binds the donor and not CMP-[9-^3H]NeuAc. The reaction proceeded to ½ the maximum extent at 80 μM 5′-CMP. b. Equilibrium constant Keq (=0.35) calculated for data in panel a. c. Varying concentrations of 5′-CMP was sialylated with ST3Gal-II (2.0 mU) using either 0.15 mM (panel c) or 1.5 mM (not shown) sialyl donor [9-^3H]NeuAcα2,3Galβ1,3GalNAcβ1,3Galα-O-Me [9-^3H[3]] for 4 hours. The product CMP-[9-^3H]NeuAc and the unused [9-^3H[3]] were separated and quantitated by Dowex-1-Formate method. d. Equilibrium constant, Keq=98.9. Diamonds denote data from 1.5 mM runs while data from 0.15 mM runs are depicted by squares.
a) Biogel P2 chromatography: A Biogel P2 column (Fine Mesh; 1.0×116.0 cm) was used with 0.1 M pyridine acetate (pH5.4) as the eluent at room temperature. […] Fractions of 1.0 ml were collected. The bound material was then eluted with 0.5M GlcNAc or 0.2M Gal in the same buffer. […] Calculation of equilibrium constant, Keq: Equilibrium constant was calculated for selected reversible bimolecular reactions that are denoted by:
[formula] Here, [9-^3H]D* denotes the radiolabeled donor and D′ is the donor after removal of sialic acid. Similarly, A and [9-^3H]A* denote the acceptor before and after incorporation of NeuAc. In each run, unreacted [9-^3H]D* and product [9-^3H] A* are measured using radioactivity measurements. The equilibrium constant (Keq=kreverse/kforward, dimensionless units) are then determined using the following equation, where terms in square brackets denote concentrations:
[formula] [D0] and [A0] are initial donor and acceptor concentrations. A plot of [D*]/([D0]−[D*]) versus [A*]/([A0]−[A*]) yields Keq from slope data. Keq<1 implies that the forward reaction is favored and the reaction proceeds to the right side to form [9-^3H]A* efficiently. Liquid Chromatography Coupled with Tandem Mass Spectrometry (LC/MS/MS)
Similar results were observed upon increasing concentrations of 5′-CMP when [9-^3H]NeuAcα2,3Galβ1,3(4-FGlcNAcβ1,6) GalNAcα-O-Bn [9-^3H[2]] was donor (FIG. 2a, b). The concentration of 5′-CMP that mediated half-maximal transfer of [9-^3H]NeuAc was 80 μM. The bimolecular equilibrium constant (Keq) for this reaction was 0.35 (dimensionless units, Table I). Indeed, the Keq varied depending on the donor and it was 98.9 when the donor was based on the globo glycolipid, [9-^3H]NeuAcα2,3Galβ1,3GalNAcβ1,3 Gala-O-Me [[9-^3H] [3]] (FIG. 2c, d). Upon comparing and [3], it is apparent that reverse sialylation proceeds more effectively in the case of [2]. To further confirm the above estimates of Keq for core-2 based structures, we also calculated this parameter for our previously published data where [9-^3H]CMP-NeuAc was donor and mucin core-2 tetrasaccharide Galβ1,4GlcNAcβ1,6(Galβ1,3)GalNAcα-O-Bn was acceptor. In this case, Keq measured with respect to the rate of mucin core-2 sialylation was 5.55 (data not shown), which translates to a reverse sialylation Keq of 0.18.

ST3Gal-II [3] = biological target: T1, ST3Gal-II; assay: Serial transfer of sialic acid from donor via 5′-CMP to acceptors (scheme-II)
Description: FIG. 3. Serial transfer of sialic acid using scheme-II was followed at increasing concentrations of acceptor D-Fucβ1,3GalNAcα-O-Bn. The donor used was either: i) 0.15 mM [9-^3H]CMP-NeuAc; or, ii) 0.15 mM [9-^3H]NeuAcα2,3Galβ1,3(4-FGlcNAcβ1,6)GalNAcα-O-Bn [9-^3H [2]] in the presence of 2.0 mM 5′-CMP, or iii) [9-^3H]NeuAcα2,3Galβ1,3(6-O-SulfoGlcNAcβ1,6)GalNAcα-O—Al [[9-^3H] [4]] in the presence of 2.0 mM 5′-CMP. In runs where [9-^3H [2]] was donor since both and [2] bind C18 cartridges, control runs were performed in the absence of D-Fucβ1,3GalNAcα-O-Bn to estimate the amount of [9-^3H]CMP-NeuAc formed under the experimental conditions. 80-85% of the radioactivity was transferred to CMP-NeuAc in these runs. The amount of CMP-NeuAc remaining in runs with was then subtracted from CMP-NeuAc radioactivity in the control run to determine the amount of sialylated. To complement this run, studies were also performed with [[9-^3H] […] In these runs, the amount of sialylated was determined by measuring radioactivity retained in the C18-cartridge. a. Equilibrium constant was 5.55 when CMP-[9-^3H]NeuAc was donor. b. ˜10-fold lower acceptor concentration was required for similar extents of reaction when CMP-[9-^3H]NeuAc was donor, compared to core-2 based donors and [4].
We tested the possibility that CMP-NeuAc formed above may be available for transfer to other acceptors using ST3Gal-II (scheme-II, FIG. 3). For this, three radiolabeled donors were prepared using methods described above: two were based on the mucin Core-2 structure ([[9-^3H] [1]] and [9-^3H]NeuAcα2,3Galβ1,3(6-O-SulfoGlcNAcβ1,6)GalNAcα-O—Al [[9-^3H] [4]]) while the third was based on the Globo glycolipid ([9-^3H] [3]). The transfer of [9-^3H]NeuAc from these sialylated donors to various T-hapten (Galβ1,3GalNAcα) and mucin core2-based glycoside acceptors in the presence of 5′-CMP and ST3Gal-II was assessed (Table III). All three […] of ST3Gal-II ([1], [3] and [4]) allowed formation of CMP-[9-^3H]NeuAc, and a diverse array of products.
The transfer of [9-^3H]NeuAc from [[9-^3H][1]] to D-Fucβ1,3GalNAcα-O-Bn in the presence of 5′-CMP and ST3Gal-II increased linearly in the first two hours and it reached saturation at 4 hours (FIG. 12), and thus the data in Table III (4 hours time point) represent equilibrium conditions. […] Further, diverse sialylated products can be formed using the same synthetic sialylated donor.
In order to compare the efficiency of individual reactions of scheme II, independent runs were performed where either 0.15 mM [9-^3H]CMP-NeuAc, 0.15 mM [9-^3H] [2] or 0.15 mM [9-^3H] [4] was the donor, and [5] was the acceptor (FIG. 3). 2 mM 5′-CMP was added in runs with core-2 donors and [4], and thus reverse sialylation of these molecules was feasible. Keq for transfer of sialic acid from CMP-NeuAc to [5] was 5.55 (FIG. 3a). […] (˜6 mM) or [9-^3H[4]] (˜6 mM). Thus, while the two-step mechanism results in lower conversion than CMP-NeuAc alone, the transfer of NeuAc still takes place at an appreciable rate.

Compound: CC(=O)N[C@H]1[C@H](OC[C@H]2O[C@H](OCc3ccccc3)[C@H](NC(C)=O)[C@@H](O[C@@H]3O[C@H](CO)[C@H](O)[C@H](O)[C@H]3O)[C@H]2O)O[C@H](CO)[C@@H](O[C@@H]2O[C@H](CO)[C@H](O)[C@H](OS(=O)(=O)O)[C@H]2O)[C@@H]1O [3-O-SulfoGalβ1,4GlcNAcβ1,6(Galβ1,3)GalNAcα-O-Bn]
- Effect on reverse sialylation (CMP-NeuAc formation and product formation) (ST3Gal-II [1]): inhibits formation of the intermediate CMP-NeuAc

Compound: CC(=O)N[C@H]1[C@H](OC[C@H]2O[C@H](OCc3ccccc3)[C@H](NC(C)=O)[C@@H](O[C@@H]3O[C@H](CO)[C@H](O)[C@H](OS(=O)(=O)O)[C@H]3O)[C@H]2O)O[C@H](CO)[C@@H](O[C@@H]2O[C@H](CO)[C@H](O)[C@H](O)[C@H]2O)[C@@H]1O [Galβ1,4GlcNAcβ1,6(3-O-SulfoGalβ1,3)GalNAcα-O-Bn]
- Effect on reverse sialylation (CMP-NeuAc formation and product formation) (ST3Gal-II [1]): permits both the formation of CMP-NeuAc from 5′-CMP

- Keq measured with respect to the rate of mucin core-2 sialylation (ST3Gal-II [2]; [9-3H]CMP-NeuAc donor, mucin core-2 tetrasaccharide acceptor, calculated for previously published data): 5.55
- Keq (dimensionless units), reverse sialylation equilibrium constant (ST3Gal-II [2]; translated from Keq 5.55 of mucin core-2 sialylation, previously published data): 0.18
- Incorporation of [9-3H]NeuAc from donor [1], percent of the CPM incorporated into [5] (ST3Gal-II [3]; acceptor 2.5 mM, 150 μM donor [1], 1 mM 5′-CMP, 4 hours): 20.5%
- Incorporation of [9-3H]NeuAc from donor [4], percent of the CPM incorporated into [5] (ST3Gal-II [3]; acceptor 2.5 mM, 150 μM donor [4], 1 mM 5′-CMP, 4 hours): 8.4%
Compound: CC(=O)N[C@H]1[C@H](OC[C@H]2O[C@H](OCc3ccccc3)[C@H](NC(C)=O)[C@@H](O[C@@H]3O[C@H](CO)[C@H](O)[C@H](O)[C@H]3O)[C@H]2O)O[C@H](CO)[C@@H](O[C@@H]2O[C@H](CO)[C@H](O)[C@H](O)[C@H]2O)[C@@H]1O [[10], Galβ1,4GlcNAcβ1,6(Galβ1,3)GalNAcα-O-Bn]

Compound: NeuAcα2,3Galβ1,4GlcNAcβ1,6(Galβ1,3)GalNAcα-O-Bn
- Effect on reverse sialylation (CMP-NeuAc formation and product formation) (ST3Gal-II [1]): prevents product formation without inhibiting CMP-NeuAc formation

- Keq (dimensionless units), reverse sialylation equilibrium constant (ST3Gal-II [2]; sialylated donor): 0.35
- amount of acceptor [5] required for comparable transfer (ST3Gal-II [3]; 0.15 mM donor, 2 mM 5′-CMP with core-2 donors): ~6 mM
- radioactivity transferred to CMP-NeuAc (ST3Gal-II [3]; control runs without acceptor [5], 2.0 mM 5′-CMP): 80-85%
Compound: [9-^3H]NeuAcα2,3Galβ1,3(4-FGlcNAcβ1,6)GalNAcα-O-Bn [[2]]
